In a compilation of properties of binary mixtures:

Assay: xn = mol fraction of the nth substance listed
Conditions: 101 kPa

CO + CCCC[n+]1ccc(C)cc1.F[B-](F)(F)F
x1 = 1
Conditions | viscosity [mPa·s]
313.15 K | 0.436
323.15 K | 0.383

CCCC[n+]1ccc(C)cc1.F[B-](F)(F)F + CO
viscosity [mPa·s]
Conditions | 298.15 K | 313.15 K | 323.15 K
x1 = 0.0151 | 0.621 | 0.507 | –
x2 = 0 | – | 81 | 50.2
x2 = 0.4287 | – | – | 9.2
x2 = 0.5246 | – | 7.58 | 5.92
x2 = 0.5678 | 9.3 | 6.31 | 4.95
x2 = 0.718 | 4.19 | – | 2.5
x2 = 0.8313 | 2.02 | 1.54 | –
x2 = 0.8803 | 1.46 | – | –
x2 = 0.9154 | 1.11 | 0.877 | 0.763
x2 = 0.9452 | 0.868 | 0.696 | 0.611
x2 = 0.9671 | – | 0.586 | 0.519
x2 = 0.9775 | 0.669 | 0.544 | 0.476
